The values below come from patent US20240270715A1, “INHIBITORS OF TRANSGLUTAMINASES” (ZEDIRA GMBH, priority 2021, published 2024).

Data set [1] concerns the target T1, recombinant human transglutaminase 2 (Homo sapiens, UniProt P21980).
T1 sequence (P21980 1-687): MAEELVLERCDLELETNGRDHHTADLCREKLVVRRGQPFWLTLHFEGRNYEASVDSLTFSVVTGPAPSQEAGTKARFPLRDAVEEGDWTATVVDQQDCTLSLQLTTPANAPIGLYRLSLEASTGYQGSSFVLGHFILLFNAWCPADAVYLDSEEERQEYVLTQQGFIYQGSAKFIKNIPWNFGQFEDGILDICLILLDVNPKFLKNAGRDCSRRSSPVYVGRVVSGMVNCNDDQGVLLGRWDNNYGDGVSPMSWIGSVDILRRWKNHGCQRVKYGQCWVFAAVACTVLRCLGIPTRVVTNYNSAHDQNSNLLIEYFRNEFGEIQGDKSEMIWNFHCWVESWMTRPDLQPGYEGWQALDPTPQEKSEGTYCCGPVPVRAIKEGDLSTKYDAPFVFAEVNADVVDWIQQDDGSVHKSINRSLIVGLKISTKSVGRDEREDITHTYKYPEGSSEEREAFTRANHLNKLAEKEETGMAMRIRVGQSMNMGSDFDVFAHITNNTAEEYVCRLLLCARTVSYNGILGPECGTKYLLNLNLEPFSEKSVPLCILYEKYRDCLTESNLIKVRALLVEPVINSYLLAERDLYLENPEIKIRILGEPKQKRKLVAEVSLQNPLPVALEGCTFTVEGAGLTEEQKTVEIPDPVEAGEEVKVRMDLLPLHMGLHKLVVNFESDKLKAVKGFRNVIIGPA
Description: Transglutaminase assay: incorporation of dansylcadaverine into dimethylcasein (DCC-assay). Type of data set: biochemical. As to conditions: recombinant human TG2 10 nM, dansylcadaverine/dimethylcasein; read-out: IC50 TG2. In a few lines: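 Recombinant human TG2 (10 nM final) incorporates dansylcadaverine (16.7 μM) into N,N-dimethylcasein (4 μM) in Tris-HCl buffer, pH 8.0, with 10 mM CaCl2 and 10 mM glutathione. Fluorescence (λex 330, λem 500 nm) followed 30 min. The slope between 20–30 min gives activity versus DMSO control, and IC50 comes from the concentration–activity plot.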

Data set [2] in a line: Log D by shake flask method (octanol / PBS pH 7.4, HPLC). Type of data set: physicochemical. Particulars: octanol / PBS pH 7.4, shake flask; read-out: logD. In a few lines:
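Log D is derived by HPLC measurement of how the compound distributes between octanol and pH 7.4 phosphate-buffered saline in a shake flask.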

Data set [3] is described as follows: Caco-2 permeability assay (CacoReady kit). Type of data set: in vitro ADME. As to conditions: human. A digest of the protocol: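 Caco-2 monolayer barrier, commercial ready-to-use kit, manufacturer protocol. Read-out: Papp.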
(In general: Passage across Caco-2 layers is used to estimate intestinal permeability.)

Regarding `CCNC(=O)C(=O)CC[C@H](NC(=O)c1cnc(C(C)C)o1)C(=O)Nc1cccn(CC(=O)NC23CCC(C2)C3)c1=O` [Compound I-90, (S)-N1-(1-(2-(bicyclo[2.1.1]hexan-1-ylamino)-2-oxoethyl)-2-oxo-1,2-dihydropyridin-3-yl)-N6-ethyl-2-(2-isopropyloxazole-5-carboxamido)-5-oxohexanediamide], the half-maximal inhibitory concentration (IC50) (in general, the midpoint of a concentration-inhibition curve) in data set [1] was under 150 nM. Also, the pH-dependent lipophilicity (logD) (commonly the decadic logarithm of the distribution of all forms, ionised or not, between an organic phase and buffer at a given pH) in data set [2] is under 1. For the same compound, the Papp (usually a coefficient for how fast a substance crosses the barrier) in data set [3] is 1 to 10 ×10⁻⁶ cm/s.

As to `CCNC(=O)C(=O)CC[C@H](NC(=O)c1c(C)noc1C)C(=O)Nc1cccn(CC(=O)NC2C3CCCC2CC3)c1=O` (stereo partly drawn) [Compound I-91, (2S)-N1-(1-(2-(bicyclo[3.2.1]octan-8-ylamino)-2-oxoethyl)-2-oxo-1,2-dihydropyridin-3-yl)-2-(3,5-dimethylisoxazole-4-carboxamido)-N6-ethyl-5-oxohexanediamide], the half-maximal inhibitory concentration (IC50) in data set [1] is 150 to 600 nM. The log distribution coefficient (logD) in data set [2] is under 1. In addition, the Papp in data set [3] was in the range of 1 to 10 ×10⁻⁶ cm/s.

For the compound `CCNC(=O)C(=O)CC[C@H](NC(=O)c1cncnc1C)C(=O)Nc1cccn(CC(=O)NC2C3CC4CC2CC(C(=O)O)(C4)C3)c1=O` (stereo partly drawn) [Compound I-92, (S)-N1-ethyl-N6-(1-(2-(5-carboxy-2-aminoadamantane)-2-oxoethyl)-2-oxo-1,2-dihydropyridin-3-yl)-5-(4-methylpyrimidine-5-carboxamido)-2-oxohexanediamide], the IC50 in data set [1] lay in the range of 150 to 600 nM. For the same compound, the pH-dependent lipophilicity (logD) in data set [2] was under 1. In data set [3], this compound gave a Papp of under 1 ×10⁻⁶ cm/s.

Turning to `CCNC(=O)C(=O)CC[C@H](NC(=O)C1CCc2ccccc2C1)C(=O)Nc1cccn(CC(=O)NC2C3CC4CC2CC(C(=O)N(C)C)(C4)C3)c1=O` (stereo partly drawn) [Compound I-93, (5S)-N1-ethyl-N6-(1-(2-(4-aminoadamantane-N,N-dimethyl-1-carboxamide)-2-oxoethyl)-2-oxo-1,2-dihydropyridin-3-yl)-2-oxo-5-(1,2,3,4-tetrahydronaphthalene-2-carboxamido)hexanediamide], the IC50 in data set [1] fell in the range of 150 to 600 nM. Also, in data set [2], the logD was under 1. For the same compound, the Papp in data set [3] is under 1 ×10⁻⁶ cm/s.

Regarding `CCNC(=O)C(=O)CC[C@H](NC(=O)[C@@H]1CN2CCN1CC2)C(=O)Nc1cccn(CC(=O)NC2C3CC4CC(C3)CC2C4)c1=O` (stereo partly drawn) [Compound I-94, (S)-2-((S)-1,4-diazabicyclo[2.2.2]octane-2-carboxamido)-N6-ethyl-N1-(1-(2-(2-adamantylamino)-2-oxoethyl)-2-oxo-1,2-dihydropyridin-3-yl)-5-oxohexanediamide], the IC50 in data set [1] was 600 to 3500 nM. In data set [2], the logD was 1 to 3. The apparent permeability coefficient (Papp) in data set [3] is under 1 ×10⁻⁶ cm/s.

Regarding `CCNC(=O)C(=O)CC[C@H](NC(=O)c1c[nH]c2ccccc12)C(=O)Nc1cccn(CC(=O)NC2C3CC4CC(C3)CC2C4)c1=O` (stereo partly drawn) [Compound I-95, (S)-N1-ethyl-5-(1H-indole-3-carboxamido)-N6-(1-(2-(2-adamantylamino)-2-oxoethyl)-2-oxo-1,2-dihydropyridin-3-yl)-2-oxohexanediamide], the half-maximal inhibitory concentration (IC50) in data set [1] was in the range of 150 to 600 nM. Also, the log distribution coefficient (logD) in data set [2] was in the range of 1 to 3. In addition, in data set [3], the Papp lay in the range of 1 to 10 ×10⁻⁶ cm/s.

As to `CCNC(=O)C(=O)CC[C@H](NC(=O)c1csc2nc(C)cn12)C(=O)Nc1cccn(CC(=O)NC2C3CC4CC(C3)CC2C4)c1=O` (stereo partly drawn) [Compound I-96, (S)-N1-ethyl-N6-(1-(2-(2-adamantylamino)-2-oxoethyl)-2-oxo-1,2-dihydropyridin-3-yl)-5-(6-methylimidazo[2,1-b]thiazole-3-carboxamido)-2-oxohexanediamide], the IC50 in data set [1] is 600 to 3500 nM. For the same compound, the logD in data set [2] was in the range of 3 to 5. For the same compound, the apparent permeability coefficient (Papp) in data set [3] was under 1 ×10⁻⁶ cm/s.

Regarding `CCNC(=O)C(=O)CC[C@H](NC(=O)c1nc2ccccc2s1)C(=O)Nc1cccn(CC(=O)N[C@@H]2C[C@@H]3CC[C@H]2C3)c1=O` [Compound I-97, (S)-2-(benzo[d]thiazole-2-carboxamido)-N1-(1-(2-((1S,2R,4R)-bicyclo[2.2.1]heptan-2-ylamino)-2-oxoethyl)-2-oxo-1,2-dihydropyridin-3-yl)-N6-ethyl-5-oxohexanediamide], the IC50 in data set [1] lay in the range of 150 to 600 nM. Further, in data set [2], the pH-dependent lipophilicity (logD) was in the range of 1 to 3. In data set [3], this compound displayed an apparent permeability (Papp) of 1 to 10 ×10⁻⁶ cm/s.

On to `CCNC(=O)C(=O)CC[C@H](NC(=O)c1cn2ccsc2n1)C(=O)Nc1cccn(CC(=O)N[C@@H]2C[C@@H]3CC[C@H]2C3)c1=O` [Compound I-98, (S)-N1-(1-(2-((1S,2R,4R)-bicyclo[2.2.1]heptan-2-ylamino)-2-oxoethyl)-2-oxo-1,2-dihydropyridin-3-yl)-N6-ethyl-2-(imidazo[2,1-b]thiazole-6-carboxamido)-5-oxohexanediamide], for which, in data set [1], the IC50 was 600 to 3500 nM. The pH-dependent lipophilicity (logD) in data set [2] was 1 to 3. In data set [3], this compound yielded a Papp of under 1 ×10⁻⁶ cm/s.

As for `CCNC(=O)C(=O)CC[C@H](NC(=O)c1cnc2ccc(OC(F)(F)F)cc2c1O)C(=O)Nc1cccn(CC(=O)N[C@@H]2C[C@@H]3CC[C@H]2C3)c1=O` [Compound I-99, (S)-N1-(1-(2-((1S,2R,4R)-bicyclo[2.2.1]heptan-2-ylamino)-2-oxoethyl)-2-oxo-1,2-dihydropyridin-3-yl)-N6-ethyl-2-(4-hydroxy-6-(trifluoromethoxy)quinoline-3-carboxamido)-5-oxohexanediamide], in data set [1], the half-maximal inhibitory concentration (IC50) was in the range of 600 to 3500 nM. Moreover, in data set [2], the logD lay in the range of 3 to 5. The apparent permeability (Papp) in data set [3] was under 1 ×10⁻⁶ cm/s.

Regarding `CCNC(=O)C(=O)CC[C@H](NC(=O)c1cc2ccccc2nn1)C(=O)Nc1cccn(CC(=O)NC23CC(C2)C3)c1=O` [Compound I-100, (S)-N1-(1-(2-(bicyclo[1.1.1]pentan-1-ylamino)-2-oxoethyl)-2-oxo-1,2-dihydropyridin-3-yl)-2-(cinnoline-3-carboxamido)-N6-ethyl-5-oxohexanediamide], in data set [1], the IC50 was in the range of 600 to 3500 nM. Also, in data set [2], the logD is under 1. The Papp in data set [3] is under 1 ×10⁻⁶ cm/s.

On to `CCNC(=O)C(=O)CC[C@H](NC(=O)c1oc2ccccc2c1CC)C(=O)Nc1cccn(CC(=O)NC23CC(C2)C3)c1=O` [Compound I-101, (S)-N1-(1-(2-(bicyclo[1.1.1]pentan-1-ylamino)-2-oxoethyl)-2-oxo-1,2-dihydropyridin-3-yl)-N6-ethyl-2-(3-ethylbenzofuran-2-carboxamido)-5-oxohexanediamide], for which the concentration for half-maximal inhibition (IC50) in data set [1] was in the range of 150 to 600 nM. In data set [2], the logD is under 1. The compound further returned an apparent permeability coefficient (Papp) in data set [3] of 1 to 10 ×10⁻⁶ cm/s.

As to `CCNC(=O)C(=O)CC[C@H](NC(=O)c1cc2ccccc2n1CC)C(=O)Nc1cccn(CC(=O)NC23CC(C2)C3)c1=O` [Compound I-102, (S)-N1-(1-(2-(bicyclo[1.1.1]pentan-1-ylamino)-2-oxoethyl)-2-oxo-1,2-dihydropyridin-3-yl)-N6-ethyl-2-(1-ethyl-1H-indole-2-carboxamido)-5-oxohexanediamide], in data set [1], the IC50 lay in the range of 150 to 600 nM. For the same compound, the logD in data set [2] fell in the range of 1 to 3. This compound displayed a Papp in data set [3] of 1 to 10 ×10⁻⁶ cm/s.

Regarding `CCNC(=O)C(=O)CC[C@H](NC(=O)c1cc2cccnc2nc1C)C(=O)Nc1cccn(CC(=O)NC23CC(C2)C3)c1=O` [Compound I-103, (S)-N1-(1-(2-(bicyclo[1.1.1]pentan-1-ylamino)-2-oxoethyl)-2-oxo-1,2-dihydropyridin-3-yl)-N6-ethyl-2-(2-methyl-1,8-naphthyridine-3-carboxamido)-5-oxohexanediamide], the IC50 in data set [1] was in the range of 600 to 3500 nM. For the same compound, the logD in data set [2] was under 1. In data set [3], the apparent permeability coefficient (Papp) is under 1 ×10⁻⁶ cm/s.

Turning to `CCNC(=O)C(=O)CC[C@H](NC(=O)c1ccc2c(c1)CCCN2)C(=O)Nc1cccn(CC(=O)NC23CCC(C2)C3)c1=O` [Compound I-104, (S)-N1-(1-(2-(bicyclo[2.1.1]hexan-1-ylamino)-2-oxoethyl)-2-oxo-1,2-dihydropyridin-3-yl)-N6-ethyl-5-oxo-2-(1,2,3,4-tetrahydroquinoline-6-carboxamido)hexanediamide], in data set [1], the IC50 fell in the range of 600 to 3500 nM. In addition, in data set [2], the logD was under 1. In addition, the Papp in data set [3] is under 1 ×10⁻⁶ cm/s.

In the case of `CCNC(=O)C(=O)CC[C@H](NC(=O)c1ccc2c(c1)CC(=O)NC2)C(=O)Nc1cccn(CC(=O)NC2(C(=O)O)C3CC4CC2CC(C(F)(F)F)(C4)C3)c1=O` (stereo partly drawn) [Compound I-105, (S)-N1-ethyl-N6-(1-(2-(2-carboxy-2-amino-5-(trifluoromethyl)adamantane)-2-oxoethyl)-2-oxo-1,2-dihydropyridin-3-yl)-2-oxo-5-(3-oxo-1,2,3,4-tetrahydroisoquinoline-6-carboxamido)hexanediamide], the half-inhibitory concentration (IC50) in data set [1] was in the range of 600 to 3500 nM. Moreover, the logD in data set [2] is under 1. This compound returned a Papp in data set [3] of under 1 ×10⁻⁶ cm/s.
